# Target: T1, full length (FL) LXRβ (Homo sapiens, UniProt P55055, DUP175-175)
# T1 construct: the full length (FL) proteins of LXRα (amino acids 1-447); NP005684; NP009052; expressed in transfected cells; host or cells: HEK293
# T1 sequence (P55055 with tags, fused parts or gaps DUP175-175): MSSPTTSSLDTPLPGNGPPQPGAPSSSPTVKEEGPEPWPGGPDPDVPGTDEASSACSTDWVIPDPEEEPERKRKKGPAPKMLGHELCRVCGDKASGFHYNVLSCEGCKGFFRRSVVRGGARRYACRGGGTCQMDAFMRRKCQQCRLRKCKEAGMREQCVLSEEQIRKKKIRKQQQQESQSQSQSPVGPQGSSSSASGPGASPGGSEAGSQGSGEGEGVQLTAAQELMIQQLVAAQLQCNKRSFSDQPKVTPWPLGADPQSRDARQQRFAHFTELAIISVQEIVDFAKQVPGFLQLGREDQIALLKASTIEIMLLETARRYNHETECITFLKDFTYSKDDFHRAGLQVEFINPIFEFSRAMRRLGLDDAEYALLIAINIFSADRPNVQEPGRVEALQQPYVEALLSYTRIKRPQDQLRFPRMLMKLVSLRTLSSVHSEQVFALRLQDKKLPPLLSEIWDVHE
# Experiment: LXR Gal4 reporter transient transfection assay (FL-M2H Gal4β)
# Assay type: cell-based
# Details: HEK293 cells, full length LXRβ; read-out: FL-M2H Gal4β (EC50 range)
# How it was run: (§1)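 Mammalian two-hybrid in HEK293: AD-LXR (FL or LBD) + BD-cofactor (SRC1 coactivator or NCoR corepressor domain), pFR-Luc reporter, pRL-CMV normaliser; PEI transfection. Compound added 4 h later (DMSO ≤0.2% final), 16 h incubation at 37 °C. Firefly/Renilla luminescence measured sequentially in lysate.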
row,SMILES,EC50 [nM]
1,O=C(NCCS(=O)(=O)O)C1CC1c1cccc(-c2c(-c3c(Cl)cccc3Cl)c3cc(F)ccc3n2S(=O)(=O)c2ccc(C(F)F)cc2)c1 (stereo not drawn) [10/4],< 100
2,Cc1ccc(S(=O)(=O)n2c(-c3cccc(-c4ccc(C(=O)O)cc4Cl)c3)c(-c3cccc(F)c3C#N)c3cc(F)ccc32)cc1 [11/1],< 100
3,Cc1ccc(S(=O)(=O)n2c(-c3cccc(-c4ccc(C(=O)O)cc4Cl)c3)c(-c3cccc(C)c3C#N)c3cc(F)ccc32)cc1 [11/2],< 100
4,COc1cccc(-c2c(-c3cccc(-c4ccc(C(=O)O)cc4Cl)c3)n(S(=O)(=O)c3ccc(C)cc3)c3ccc(F)cc23)c1C#N [11/3],< 100
5,Cc1ccc(S(=O)(=O)n2c(-c3cccc(-c4ccc(C(=O)O)cc4Cl)c3)c(-c3ccc(C)cc3C#N)c3cc(F)ccc32)cc1 [11/4],< 100
6,Cc1ccc(S(=O)(=O)n2c(-c3cccc(-c4ccc(C(=O)O)cc4Cl)c3)c(-c3cc(C)ccc3C#N)c3cc(F)ccc32)cc1 [11/5],< 100
7,Cc1ccc(S(=O)(=O)n2c(-c3cccc(-c4ccc(C(=O)O)cc4Cl)c3)c(-c3c(C)cccc3C#N)c3cc(F)ccc32)cc1 [11/6],< 100
8,N#Cc1sccc1-c1c(-c2cccc(-c3cc(F)c(C(=O)O)cc3Cl)c2)n(S(=O)(=O)c2ccc(CF)cc2)c2ccc(F)cc12 [11/7],< 100
9,N#Cc1sccc1-c1c(-c2cccc(-c3cc(F)c(C(=O)O)cc3Cl)c2)n(S(=O)(=O)c2ccc(C(F)F)cc2)c2ccc(F)cc12 [11/8],< 100
10,N#Cc1scnc1-c1c(-c2cccc(-c3cc(F)c(C(=O)O)cc3Cl)c2)n(S(=O)(=O)c2ccc(C(F)F)cc2)c2ccc(F)cc12 [11/9],< 100
11,N#Cc1ccncc1-c1c(-c2cccc(-c3cc(F)c(C(=O)O)cc3Cl)c2)n(S(=O)(=O)c2ccc(C(F)F)cc2)c2ccc(F)cc12 [11/10],< 100
12,Cc1cccc(C)c1-c1c(-c2cccc(-c3ccc(C(=O)O)cc3Cl)c2)n(S(=O)(=O)c2ccc(C(F)F)cc2)c2ccc(F)cc12 [11/14],< 100
13,O=C(O)c1ccc(-c2cccc(-c3c(-c4c(C(F)F)cccc4C(F)F)c4cc(F)ccc4n3S(=O)(=O)c3ccc(C(F)F)cc3)c2)c(Cl)c1 [11/15],< 100
14,N#Cc1sccc1-c1c(-c2cccc(-c3ccc(C(=O)O)cc3Cl)c2)n(S(=O)(=O)c2ccc(F)cc2)c2ccc(F)cc12 [11/18],< 100
15,Cc1ccc(S(=O)(=O)n2c(-c3cccc(-c4ccc(C(=O)O)cc4Cl)c3)c(-c3ccsc3C#N)c3cc(F)ccc32)cc1F [11/19],< 100
16,N#Cc1ccc(S(=O)(=O)n2c(-c3cccc(-c4ccc(C(=O)O)cc4Cl)c3)c(-c3ccsc3C#N)c3cc(F)ccc32)cc1 [11/20],< 100
17,O=C(O)c1ccc(-c2cccc(-c3c(-c4ccsc4C(F)F)c4cc(F)ccc4n3S(=O)(=O)c3ccc(Cl)cc3)c2)c(Cl)c1 [11/21],< 100

# Target: T2, LXRβ ligand-binding domain (Homo sapiens, UniProt P55055, DUP175-175)
# T2 construct: amino acids 156-461; NP009052; made in house; host or cells: E. coli
# T2 sequence (P55055 with tags, fused parts or gaps DUP175-175 limits assumed): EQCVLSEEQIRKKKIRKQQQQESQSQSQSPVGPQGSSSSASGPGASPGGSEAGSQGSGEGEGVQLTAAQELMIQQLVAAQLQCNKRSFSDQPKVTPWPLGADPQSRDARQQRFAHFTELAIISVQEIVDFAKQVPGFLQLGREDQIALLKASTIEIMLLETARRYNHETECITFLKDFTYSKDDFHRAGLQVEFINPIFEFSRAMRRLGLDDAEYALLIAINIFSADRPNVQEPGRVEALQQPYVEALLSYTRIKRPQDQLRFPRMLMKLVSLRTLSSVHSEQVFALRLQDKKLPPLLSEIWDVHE
# Experiment: TR-FRETβ activity assay (NCoA3 coactivator peptide recruitment)
# Assay type: biochemical
# Details: TR-FRET, 1 μM 24(S)-25-epoxycholesterol prestimulation; read-out: FRETβ (EC50 range)
# How it was run: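 GST-tagged human LXRβ LBD (aa 156-461, E. coli) at 76 nM with 400 nM biotinylated NCoA3 peptide in Tris/HCl pH 6.8, 240 mM KCl, BSA, 0.002% Triton-X-100, plus 1 μM 24(S)-25-epoxycholesterol as prestimulating agonist. Compounds at 50 μM down to 0.002 μM, 1 h at 4 °C. Coactivator recruitment by TR-FRET (Tb cryptate/XL665, 615/665 nm), triplicates.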
row,SMILES,EC50 [nM]
1,O=C(NCCS(=O)(=O)O)C1CC1c1cccc(-c2c(-c3c(Cl)cccc3Cl)c3cc(F)ccc3n2S(=O)(=O)c2ccc(C(F)F)cc2)c1 (stereo not drawn) [10/4],< 100
2,Cc1ccc(S(=O)(=O)n2c(-c3cccc(-c4ccc(C(=O)O)cc4Cl)c3)c(-c3cccc(F)c3C#N)c3cc(F)ccc32)cc1 [11/1],< 100
3,Cc1ccc(S(=O)(=O)n2c(-c3cccc(-c4ccc(C(=O)O)cc4Cl)c3)c(-c3cccc(C)c3C#N)c3cc(F)ccc32)cc1 [11/2],< 100
4,COc1cccc(-c2c(-c3cccc(-c4ccc(C(=O)O)cc4Cl)c3)n(S(=O)(=O)c3ccc(C)cc3)c3ccc(F)cc23)c1C#N [11/3],< 100
5,Cc1ccc(S(=O)(=O)n2c(-c3cccc(-c4ccc(C(=O)O)cc4Cl)c3)c(-c3ccc(C)cc3C#N)c3cc(F)ccc32)cc1 [11/4],100 to 1000
6,Cc1ccc(S(=O)(=O)n2c(-c3cccc(-c4ccc(C(=O)O)cc4Cl)c3)c(-c3cc(C)ccc3C#N)c3cc(F)ccc32)cc1 [11/5],< 100
7,Cc1ccc(S(=O)(=O)n2c(-c3cccc(-c4ccc(C(=O)O)cc4Cl)c3)c(-c3c(C)cccc3C#N)c3cc(F)ccc32)cc1 [11/6],< 100
8,N#Cc1sccc1-c1c(-c2cccc(-c3cc(F)c(C(=O)O)cc3Cl)c2)n(S(=O)(=O)c2ccc(CF)cc2)c2ccc(F)cc12 [11/7],< 100
9,N#Cc1sccc1-c1c(-c2cccc(-c3cc(F)c(C(=O)O)cc3Cl)c2)n(S(=O)(=O)c2ccc(C(F)F)cc2)c2ccc(F)cc12 [11/8],< 100
10,N#Cc1scnc1-c1c(-c2cccc(-c3cc(F)c(C(=O)O)cc3Cl)c2)n(S(=O)(=O)c2ccc(C(F)F)cc2)c2ccc(F)cc12 [11/9],< 100
11,N#Cc1ccncc1-c1c(-c2cccc(-c3cc(F)c(C(=O)O)cc3Cl)c2)n(S(=O)(=O)c2ccc(C(F)F)cc2)c2ccc(F)cc12 [11/10],< 100
12,Cc1cccc(C)c1-c1c(-c2cccc(-c3ccc(C(=O)O)cc3Cl)c2)n(S(=O)(=O)c2ccc(C(F)F)cc2)c2ccc(F)cc12 [11/14],< 100
13,O=C(O)c1ccc(-c2cccc(-c3c(-c4c(C(F)F)cccc4C(F)F)c4cc(F)ccc4n3S(=O)(=O)c3ccc(C(F)F)cc3)c2)c(Cl)c1 [11/15],< 100
14,N#Cc1sccc1-c1c(-c2cccc(-c3ccc(C(=O)O)cc3Cl)c2)n(S(=O)(=O)c2ccc(F)cc2)c2ccc(F)cc12 [11/18],100 to 1000
15,Cc1ccc(S(=O)(=O)n2c(-c3cccc(-c4ccc(C(=O)O)cc4Cl)c3)c(-c3ccsc3C#N)c3cc(F)ccc32)cc1F [11/19],100 to 1000
16,N#Cc1ccc(S(=O)(=O)n2c(-c3cccc(-c4ccc(C(=O)O)cc4Cl)c3)c(-c3ccsc3C#N)c3cc(F)ccc32)cc1 [11/20],100 to 1000
17,O=C(O)c1ccc(-c2cccc(-c3c(-c4ccsc4C(F)F)c4cc(F)ccc4n3S(=O)(=O)c3ccc(Cl)cc3)c2)c(Cl)c1 [11/21],< 100

# Target: T3, full length (FL) LXRα (Homo sapiens, UniProt Q13133)
# T3 construct: the full length (FL) proteins of LXRα (amino acids 1-447); NP005684; expressed in transfected cells; host or cells: HEK293
# T3 sequence (Q13133 1-447): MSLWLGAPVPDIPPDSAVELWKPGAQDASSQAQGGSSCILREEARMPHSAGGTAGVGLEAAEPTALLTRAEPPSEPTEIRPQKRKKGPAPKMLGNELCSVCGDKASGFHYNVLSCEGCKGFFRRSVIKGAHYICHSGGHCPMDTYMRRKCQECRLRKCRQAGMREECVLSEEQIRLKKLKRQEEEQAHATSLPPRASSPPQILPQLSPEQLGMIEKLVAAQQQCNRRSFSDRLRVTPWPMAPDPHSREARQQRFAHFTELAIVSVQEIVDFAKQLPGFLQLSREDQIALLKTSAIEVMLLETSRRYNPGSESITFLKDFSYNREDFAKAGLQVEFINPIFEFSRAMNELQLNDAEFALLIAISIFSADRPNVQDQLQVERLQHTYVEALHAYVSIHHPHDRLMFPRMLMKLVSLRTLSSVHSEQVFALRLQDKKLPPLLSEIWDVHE
# Experiment: LXR Gal4 reporter transient transfection assay (FL-M2H Gal4α)
# Assay type: cell-based
# Details: HEK293 cells, full length LXRα; read-out: FL-M2H Gal4α (EC50 range)
# How it was run: as §1
row,SMILES,EC50 [nM]
1,O=C(NCCS(=O)(=O)O)C1CC1c1cccc(-c2c(-c3c(Cl)cccc3Cl)c3cc(F)ccc3n2S(=O)(=O)c2ccc(C(F)F)cc2)c1 (stereo not drawn) [10/4],100 to 1000
2,Cc1ccc(S(=O)(=O)n2c(-c3cccc(-c4ccc(C(=O)O)cc4Cl)c3)c(-c3cccc(F)c3C#N)c3cc(F)ccc32)cc1 [11/1],< 100
3,Cc1ccc(S(=O)(=O)n2c(-c3cccc(-c4ccc(C(=O)O)cc4Cl)c3)c(-c3cccc(C)c3C#N)c3cc(F)ccc32)cc1 [11/2],< 100
4,COc1cccc(-c2c(-c3cccc(-c4ccc(C(=O)O)cc4Cl)c3)n(S(=O)(=O)c3ccc(C)cc3)c3ccc(F)cc23)c1C#N [11/3],< 100
5,Cc1ccc(S(=O)(=O)n2c(-c3cccc(-c4ccc(C(=O)O)cc4Cl)c3)c(-c3ccc(C)cc3C#N)c3cc(F)ccc32)cc1 [11/4],< 100
6,Cc1ccc(S(=O)(=O)n2c(-c3cccc(-c4ccc(C(=O)O)cc4Cl)c3)c(-c3cc(C)ccc3C#N)c3cc(F)ccc32)cc1 [11/5],< 100
7,Cc1ccc(S(=O)(=O)n2c(-c3cccc(-c4ccc(C(=O)O)cc4Cl)c3)c(-c3c(C)cccc3C#N)c3cc(F)ccc32)cc1 [11/6],< 100
8,N#Cc1sccc1-c1c(-c2cccc(-c3cc(F)c(C(=O)O)cc3Cl)c2)n(S(=O)(=O)c2ccc(CF)cc2)c2ccc(F)cc12 [11/7],< 100
9,N#Cc1sccc1-c1c(-c2cccc(-c3cc(F)c(C(=O)O)cc3Cl)c2)n(S(=O)(=O)c2ccc(C(F)F)cc2)c2ccc(F)cc12 [11/8],< 100
10,N#Cc1scnc1-c1c(-c2cccc(-c3cc(F)c(C(=O)O)cc3Cl)c2)n(S(=O)(=O)c2ccc(C(F)F)cc2)c2ccc(F)cc12 [11/9],< 100
11,N#Cc1ccncc1-c1c(-c2cccc(-c3cc(F)c(C(=O)O)cc3Cl)c2)n(S(=O)(=O)c2ccc(C(F)F)cc2)c2ccc(F)cc12 [11/10],< 100
12,Cc1cccc(C)c1-c1c(-c2cccc(-c3ccc(C(=O)O)cc3Cl)c2)n(S(=O)(=O)c2ccc(C(F)F)cc2)c2ccc(F)cc12 [11/14],< 100
13,O=C(O)c1ccc(-c2cccc(-c3c(-c4c(C(F)F)cccc4C(F)F)c4cc(F)ccc4n3S(=O)(=O)c3ccc(C(F)F)cc3)c2)c(Cl)c1 [11/15],< 100
14,N#Cc1sccc1-c1c(-c2cccc(-c3ccc(C(=O)O)cc3Cl)c2)n(S(=O)(=O)c2ccc(F)cc2)c2ccc(F)cc12 [11/18],< 100
15,Cc1ccc(S(=O)(=O)n2c(-c3cccc(-c4ccc(C(=O)O)cc4Cl)c3)c(-c3ccsc3C#N)c3cc(F)ccc32)cc1F [11/19],< 100
16,N#Cc1ccc(S(=O)(=O)n2c(-c3cccc(-c4ccc(C(=O)O)cc4Cl)c3)c(-c3ccsc3C#N)c3cc(F)ccc32)cc1 [11/20],< 100
17,O=C(O)c1ccc(-c2cccc(-c3c(-c4ccsc4C(F)F)c4cc(F)ccc4n3S(=O)(=O)c3ccc(Cl)cc3)c2)c(Cl)c1 [11/21],< 100
